According to patent US20210386704A1, “MDMA RESPONSE PREDICTION” (Universitätsspital Basel, priority 2020, published 2021):

Experiments:
[1] = Pooled analysis of ten placebo-controlled crossover studies: MDMA plasma concentration (AUC 0-6 h)
healthy human subjects [2] = test: Pooled analysis: subjective response to MDMA (VAS, AMRS, 5D-ASC)
healthy human subjects [3] = test: Pooled analysis: autonomic response to MDMA (blood pressure, heart rate, body temperature; Emax)
[4] = poor vs extensive/normal metabolizers; de la Torre et al., 2005; Schmid et al., 2016; cited from earlier work

## CNC(C)Cc1ccc2c(c1)OCO2 (racemic) [MDMA, (±)3,4-methylenedioxymethamphetamine]
[1]; adjusted for dose per body weight (FIG. 2), p<0.01
  MDMA plasma concentration, relation to genetically determined CYP2D6 activity: still inversely correlated with the MDMA plasma concentration
[1]; poor vs extensive CYP2D6 metabolizers (FIGS. 1 and 2)
  MDMA concentrations and response in subjects with poor CYP2D6 activity: higher MDMA concentrations and a stronger MDMA response compared with CYP2D6 extensive metabolizers
[1]; similar total doses, not accounting for body weight
  MDMA plasma AUC over 6 hours, women vs men: women exhibit significantly higher MDMA plasma AUC than men
Healthy human subjects [2]; LASSO model (FIG. 3)
  Bad drug effect, relation to older age: higher bad drug effect
  Strongest predictor of outcome effects after MDMA (plasma AUC, MAP increase, AMRS, VAS, 5D-ASC ratings): dose per body weight is the strongest predictor
Healthy human subjects [2]; adjusted for dose and body weight (FIG. 2)
  Sex as predictor of response: lost its predictor value
Healthy human subjects [2]; dose-adjusted (FIG. 2)
  Effect of well-being (AMRS) before MDMA on response: no significant effect as predictor variable on the response to MDMA
Healthy human subjects [2]; dose-adjusted (FIG. 2), both p<0.01 and both p<0.05
  Dread of ego dissolution and impaired control and cognition (5D-ASC) in subjects with higher neuroticism (NEO-FFI) and trait anxiety (STAI-T): more likely to experience “dread of ego dissolution” and “impaired control and cognition”
Healthy human subjects [2]; dose-adjusted (FIG. 2), p<0.05, p<0.05, p<0.01
  Closeness (VAS), oceanic boundlessness and visionary restructuralization (5D-ASC), relation to openness to experience (NEO-FFI): positively correlated
Healthy human subjects [2]; past use within the range of 0-5 times (FIG. 2 and FIG. 3)
  Effect of past use of MDMA on response: no significant effect on the response to MDMA
Healthy human subjects [2]; within range of doses tested (75 and 125 mg)
  Good drug effect / positive effects, relation to dose: a high dose of MDMA (>75 mg) is needed to produce greater positive effects
Healthy human subjects [2]; within the 75-125 mg absolute dose range (FIG. 1)
  Intensity of response at high dose of MDMA per body weight: more intense response to MDMA with more positive and more cardiostimulant effects
Healthy human subjects [3]; LASSO model (FIG. 3)
  Heart rate increase, relation to older age: lower heart rate increase
  Temperature increase, relation to older age: lower temperature increase
Healthy human subjects [3]; adjusted for dose per body weight (FIG. 2), p<0.05
  Heart rate, correlation with age: inverse correlation between heart rate and age remained significant
[4]
  MDMA blood plasma concentrations in CYP2D6 poor metabolizers: higher MDMA blood plasma concentrations than extensive/normal metabolizers
